Experimental data taken from patent publication US11834517B2, “Branched peptides for enzymatic assembly and mitochondria drug delivery” (BRANDEIS UNIVERSITY, priority 2017, dated 2023).
Peptide text beside a SMILES is read from it. * marks the point of attachment. X2 = O=C(Cc1ccc2ccccc2c1)N[C@H](Cc1ccccc1)C(=O)N[C@H](Cc1ccccc1)C(=O)N[C@H](CCCCN*)C(=O)NCCNc1ccc([N+](=O)[O-])c2nonc12; X3 = O=C(Cc1ccc2ccccc2c1)N[C@@H](Cc1ccccc1)C(=O)N[C@@H](Cc1ccccc1)C(=O)N[C@@H](CCCCN*)C(=O)N[C@@H](Cc1ccc(O)cc1)C(=O)O; X1 = O=C(Cc1ccc2ccccc2c1)N[C@H](Cc1ccccc1)C(=O)N[C@H](Cc1ccccc1)C(=O)N[C@H](CCCCN*)C(=O)N[C@H](Cc1ccc(O)cc1)C(=O)O

How the values were obtained:
HeLa cells [1] = experiment: Cell viability / cytotoxicity (MTT) assay, HeLa; format: cell-based
HeLa cells [2] = experiment: Uptake and mitochondrial localization of NBD-Mito-Flag in HeLa cells in the presence of inhibitors; format: cell-based, human; conditions: NBD-Mito-Flag 200 μM; for uptake of NBD-Mito-Flag (intracellular fluorescence): 2 h, with endocytosis inhibitor (CPZ 5 μM); for mitochondrial localization of NBD-Mito-Flag: HeLa, with inhibitor (chloroquine 10 μM; erastin; Ndz 10 μM, 1 h pretreatment; FCCP pretreatment)
Description: FIG. 26B is a panel of confocal fluorescence images of HeLa cells incubated with NBD-Mito-Flag (200 μM) and chloroquine (10 μM). […] FIG. 26D is a panel of TEM images of mitochondria isolated from HeLa, HEK293 and HS-5 cells incubated with 200 μM Mito-Flag for 24 h. […] FIG. 26E and FIG. 26F are fluorescent images of NBD-Mito-Flag and RFP-LAMP1 in ENTK-knockdown HeLa cells. […] FIG. 26G-H are fluorescent images of the HeLa cells incubated with NBD-Mito-Flag (200 μM, 2 h) (FIG. 26G) or the mixture of virus (RFP-LAMP1) and Mito-Flag (200 μM, 24 h) (FIG. 26H) in the presence of erastin of different concentrations. […] FIG. 26I is a panel of fluorescent images of HeLa cells incubated with NBD-Mito-Flag (200 μM, 2 h) after the pretreatment by Ndz (10 μM, 1 h).
Intracellular Fluorescence Quantification: Cells were seeded in petri dishes and incubated in standard condition for 12 h before experiment. After being treated by the condition of interest, all cells were washed by PBS (3 time for 5 min). After the washing step, cells were detached from the dishes using trypsin. The trypsin was removed by centrifuge and washing with PBS. The cell suspensions (in PBS) were diluted to 10^5 cell/mL. 100 μL diluted cell suspension was added in a 96-well plate (at least 5 wells per sample). The intracellular fluorescence intensity was immediately determined using a DTX 880 Multimode Detector (Beckman Coulter Inc.). The experiments were repeated, and the intracellular fluorescence intensity was averaged (n>3).

HeLa cells [3] = experiment: Cell viability after GFP-TP53 plasmid transfection, HeLa; format: cell-based, human; conditions: single agent: free GFP-TP53 plasmid (5 μg/mL) or Mito-Flag (200 μM), 3rd day
Description: (§1) FIGS. 24A-G show how perimitochondrial ENS causes mitochondrial transgene expression to induce mitophagy or apoptosis. FIG. 24A is a Western blot analysis of FUNDC1 and LC3B levels in the mitochondria fraction and cytosolic fraction, respectively, of HeLa cells incubated with conditions of interest. VDAC1 serves as mitochondria protein loading control. FUNDC1 plasmid: 5 μg/mL, Mito-Flag: 200 μM, Time: 2 days. FIG. 24B is a panel of fluorescent images showing that Mito-Flag perimitochondrial ENS delivering FUNDC1 gene into mitochondria to induce mitochondrial morphology changes within 2 days. FIG. 24C is a panel of fluorescent images showing that the detection of mitophagy via immunofluorescent staining of autophagy marker, LC3 (2nd day). FIG. 24D is a panel of fluorescent images of HeLa cells incubated with free GFP-TP53 plasmid and the plasmid mixed with Mito-Flag (200 μM, 24 h). FIG. 24E is a graph illustrating cell viability of HeLa, Saos-2, and HS-5 cells incubated with free GFP-TP53 plasmid (5 μg/mL), Mito-Flag (200 μM), and the plasmid (5 μg/mL) mixed with Mito-Flag (200 μM, 3rd day). Data are presented as mean±standard deviation. FIG. 24F is a panel of fluorescent images showing an apoptosis analysis on HeLa and HS-5 cells. […]

Saos-2 cell = experiment: Cell viability after GFP-TP53 plasmid transfection, Saos-2; format: cell-based, human; conditions: Saos-2, single agent: free GFP-TP53 plasmid or Mito-Flag
Description: as §1

HS-5 cells = experiment: Cell viability after GFP-TP53 plasmid transfection, HS-5; format: cell-based, human; conditions: HS-5, GFP-TP53 plasmid (5 μg/mL) mixed with Mito-Flag (200 μM), 3rd day
Description: as §1

MT-CO1-KO cancer cells = experiment: Sensitivity of MT-CO1-KO cancer cells to chemotherapeutic agents; format: cell-based, human; conditions: MT-CO1 knocked out via Mito-Flag and CRISPR-MT-CO1 plasmid

`NCCCC[C@H](NC(=O)[C@H](CC(=O)O)NC(=O)[C@H](CC(=O)O)NC(=O)[C@H](CC(=O)O)NC(=O)[C@H](CC(=O)O)NC(=O)[C@H](CCCCN)NC(=O)[C@H](Cc1ccc(O)cc1)NC(=O)[C@@H](N)CC(=O)O)C(=O)NCC(=O)NCCCC[C@H](NC(=O)[C@H](Cc1ccccc1)NC(=O)[C@H](Cc1ccccc1)NC(=O)Cc1ccc2ccccc2c1)C(=O)N[C@@H](Cc1ccc(O)cc1)C(=O)O` [L-2 ? FLAG] (H-DYKDDDDKG-X3) was tested, and the “cytotoxicity of branched peptide alone” value (HeLa cells [1]) was “minimal cytotoxicity” and the “cytotoxicity of branched peptide alone” value (U87MG cells) was “minimal cytotoxicity”.

With `CN(C)CCCN1c2ccccc2Sc2ccc(Cl)cc21` [chlorpromazine] the “uptake of NBD-Mito-Flag (intracellular fluorescence)” value (HeLa cells [2]) was “significantly decreases the intracellular fluorescence”.

With `N#CC(C#N)=NNc1ccc(OC(F)(F)F)cc1` [FCCP, p-trifluoromethoxy carbonylcyanide phenylhydrazone] the “mitochondrial localization of NBD-Mito-Flag” value (shortened to “mitochondrial localization”) (HeLa cells [2]) was “diminishes the mitochondria-specific localization”.

For M-β-CD, the “uptake of NBD-Mito-Flag (intracellular fluorescence)” value (HeLa cells [2]) was “hardly affects the uptake”.

In the case of `COC(=O)Nc1nc2ccc(C(=O)c3cccs3)cc2[nH]1` [nocodazole], the “mitochondrial localization” value (HeLa cells [2]) is reported as “weakened mitochondrial fluorescence”.

With `NCCCC[C@H](NC(=O)[C@H](CC(=O)O)NC(=O)[C@H](CC(=O)O)NC(=O)[C@H](CC(=O)O)NC(=O)[C@H](CC(=O)O)NC(=O)[C@H](CCCCN)NC(=O)[C@H](Cc1ccc(O)cc1)NC(=O)[C@@H](N)CC(=O)O)C(=O)NCC(=O)NCCCC[C@@H](NC(=O)[C@@H](Cc1ccccc1)NC(=O)[C@@H](Cc1ccccc1)NC(=O)Cc1ccc2ccccc2c1)C(=O)NCCNc1ccc([N+](=O)[O-])c2nonc12` [D-1 ? FLAG] (H-DYKDDDDKG-X2) the “cytotoxicity of branched peptide alone” value (HeLa cells [1]) was “little cytotoxicity” and the “cytotoxicity of branched peptide alone” value (U87MG cells) was “little cytotoxicity”.

For `NCCCC[C@H](NC(=O)[C@H](CC(=O)O)NC(=O)[C@H](CC(=O)O)NC(=O)[C@H](CC(=O)O)NC(=O)[C@H](CC(=O)O)NC(=O)[C@H](CCCCN)NC(=O)[C@H](Cc1ccc(O)cc1)NC(=O)[C@@H](N)CC(=O)O)C(=O)NCC(=O)NCCCC[C@@H](NC(=O)[C@@H](Cc1ccccc1)NC(=O)[C@@H](Cc1ccccc1)NC(=O)Cc1ccc2ccccc2c1)C(=O)N[C@H](Cc1ccc(O)cc1)C(=O)O` [D-2 ? FLAG] (H-DYKDDDDKG-X1), the “cytotoxicity of branched peptide alone” value (HeLa cells [1]) was “minimal cytotoxicity”, the cell viability (HeLa cells [3]) was “hardly causes cell death” and the cell viability (Saos-2 cell) was “innoxious”. For the same compound, the cell viability (HS-5 cells) was “neither free GFP-TP53 plasmid nor the mixture of Mito-Flag and GFP-TP53 plasmid impairs the viability of HS-5 cells” and the “cytotoxicity of branched peptide alone” value (U87MG cells) was “minimal cytotoxicity”.

In the case of `N.N.[Cl][Pt][Cl]` [cisplatin], the “sensitivity of MT-CO1-KO cancer cells versus wild type” value (MT-CO1-KO cancer cells) is reported as “more sensitive”.

In the case of `CCN(CC)CCCC(C)Nc1ccnc2cc(Cl)ccc12` (stereo not drawn) [chloroquine], the “mitochondrial localization” value (HeLa cells [2]) is reported as “significantly reduced mitochondrial localization”.
